The inhibition is the relative decrease from the control value, in per cent.

2 molecules from US10710978B2, “STK4 inhibitors for treatment of hematologic malignancies” (Dana-Farber Cancer Institute, Inc., priority 2015, dated 2020) can be followed below.

Holding throughout (test): KiNativ assay
What all share (assay type): binding

Test [1] deals with AKT2, AKT3. The settings on record: H929 live cell; for % inhibition (range): 10 μM. The method, boiled down:
(§1)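 Live H929 cells, compound 10 μM, duplicate; KiNativ probe profiling; IC50 by MS.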

Test [2] has as its target ARAF (Homo sapiens (Human), UniProt P10398). The conditions noted are these: H929 live cell. The method, boiled down:
as §1

The target of test [3] is CDK9 (Homo sapiens (Human), UniProt P50750). The settings on record: H929 live cell. Summed up:
as §1

Test [4] relates to CK1d, CK1e. The settings on record: H929 live cell. Summed up: (§2)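 IC50 values came from MS analysis in a KiNativ format, following compound exposure of live H929 cells at 10 μM, tested twice.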
The target in test [5] is CK1g1 (Homo sapiens (Human), UniProt Q9HCP0). The conditions noted are these: H929 live cell. Summed up: as §2
Chain of CK1g1 (Q9HCP0 whole entry): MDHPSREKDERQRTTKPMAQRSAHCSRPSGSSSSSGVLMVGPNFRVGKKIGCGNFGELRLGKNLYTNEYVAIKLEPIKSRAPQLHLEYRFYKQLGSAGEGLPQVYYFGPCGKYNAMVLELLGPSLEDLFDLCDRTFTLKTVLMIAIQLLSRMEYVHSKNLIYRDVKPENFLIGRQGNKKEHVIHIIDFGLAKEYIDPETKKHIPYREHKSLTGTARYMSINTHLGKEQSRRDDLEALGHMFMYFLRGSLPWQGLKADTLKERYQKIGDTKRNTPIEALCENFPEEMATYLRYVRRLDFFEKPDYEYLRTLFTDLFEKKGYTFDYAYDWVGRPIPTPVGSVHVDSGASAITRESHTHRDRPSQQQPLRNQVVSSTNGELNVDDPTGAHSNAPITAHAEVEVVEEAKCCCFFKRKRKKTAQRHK
Test [6] deals with DNAPK (Homo sapiens (Human), UniProt P78527). The conditions noted are these: H929 live cell. The method, then:
Biochemical IC50s of the compounds of the present disclosure against various kinases were measured in a KiNativ assay. Compounds were screened in duplicate at 10 μM in H929 live cell. IC50 was measured via Mass spectroscopy (MS).

Test [7] concerns the target GPRK5 (Homo sapiens (Human), UniProt P34947). The settings on record: H929 live cell. The method, boiled down: as §2
For test [8], the target named is KHS2 (Homo sapiens (Human), UniProt Q8IVH8). The settings on record: H929 live cell. The method, boiled down:
as §2

Test [9] addresses MAP2K2 (Homo sapiens (Human), UniProt P36507). The conditions noted are these: H929 live cell. Summed up:
as §2

The target of test [10] is PDK1 (Homo sapiens (Human), UniProt O15530). The settings on record: H929 live cell. The method, boiled down: as §1
Chain of PDK1 (O15530 whole entry): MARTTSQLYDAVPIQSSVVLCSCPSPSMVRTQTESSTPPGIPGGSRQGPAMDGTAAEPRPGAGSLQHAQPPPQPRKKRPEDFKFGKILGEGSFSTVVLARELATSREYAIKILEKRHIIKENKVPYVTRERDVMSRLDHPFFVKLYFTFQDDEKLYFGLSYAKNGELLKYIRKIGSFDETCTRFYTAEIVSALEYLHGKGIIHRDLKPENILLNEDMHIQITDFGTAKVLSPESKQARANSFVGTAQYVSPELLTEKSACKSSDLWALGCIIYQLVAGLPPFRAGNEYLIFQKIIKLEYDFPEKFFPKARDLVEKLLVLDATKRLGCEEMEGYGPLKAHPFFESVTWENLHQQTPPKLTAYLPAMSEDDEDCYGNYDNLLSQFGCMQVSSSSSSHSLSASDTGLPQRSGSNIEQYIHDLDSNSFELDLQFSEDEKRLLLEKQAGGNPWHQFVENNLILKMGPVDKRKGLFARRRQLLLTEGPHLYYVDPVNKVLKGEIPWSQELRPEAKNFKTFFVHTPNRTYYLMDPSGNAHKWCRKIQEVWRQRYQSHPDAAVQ
The target of test [11] is QSK (Homo sapiens (Human), UniProt Q9Y2K2). The conditions noted are these: H929 live cell. Summed up: as §1
Chain of QSK (Q9Y2K2 whole entry): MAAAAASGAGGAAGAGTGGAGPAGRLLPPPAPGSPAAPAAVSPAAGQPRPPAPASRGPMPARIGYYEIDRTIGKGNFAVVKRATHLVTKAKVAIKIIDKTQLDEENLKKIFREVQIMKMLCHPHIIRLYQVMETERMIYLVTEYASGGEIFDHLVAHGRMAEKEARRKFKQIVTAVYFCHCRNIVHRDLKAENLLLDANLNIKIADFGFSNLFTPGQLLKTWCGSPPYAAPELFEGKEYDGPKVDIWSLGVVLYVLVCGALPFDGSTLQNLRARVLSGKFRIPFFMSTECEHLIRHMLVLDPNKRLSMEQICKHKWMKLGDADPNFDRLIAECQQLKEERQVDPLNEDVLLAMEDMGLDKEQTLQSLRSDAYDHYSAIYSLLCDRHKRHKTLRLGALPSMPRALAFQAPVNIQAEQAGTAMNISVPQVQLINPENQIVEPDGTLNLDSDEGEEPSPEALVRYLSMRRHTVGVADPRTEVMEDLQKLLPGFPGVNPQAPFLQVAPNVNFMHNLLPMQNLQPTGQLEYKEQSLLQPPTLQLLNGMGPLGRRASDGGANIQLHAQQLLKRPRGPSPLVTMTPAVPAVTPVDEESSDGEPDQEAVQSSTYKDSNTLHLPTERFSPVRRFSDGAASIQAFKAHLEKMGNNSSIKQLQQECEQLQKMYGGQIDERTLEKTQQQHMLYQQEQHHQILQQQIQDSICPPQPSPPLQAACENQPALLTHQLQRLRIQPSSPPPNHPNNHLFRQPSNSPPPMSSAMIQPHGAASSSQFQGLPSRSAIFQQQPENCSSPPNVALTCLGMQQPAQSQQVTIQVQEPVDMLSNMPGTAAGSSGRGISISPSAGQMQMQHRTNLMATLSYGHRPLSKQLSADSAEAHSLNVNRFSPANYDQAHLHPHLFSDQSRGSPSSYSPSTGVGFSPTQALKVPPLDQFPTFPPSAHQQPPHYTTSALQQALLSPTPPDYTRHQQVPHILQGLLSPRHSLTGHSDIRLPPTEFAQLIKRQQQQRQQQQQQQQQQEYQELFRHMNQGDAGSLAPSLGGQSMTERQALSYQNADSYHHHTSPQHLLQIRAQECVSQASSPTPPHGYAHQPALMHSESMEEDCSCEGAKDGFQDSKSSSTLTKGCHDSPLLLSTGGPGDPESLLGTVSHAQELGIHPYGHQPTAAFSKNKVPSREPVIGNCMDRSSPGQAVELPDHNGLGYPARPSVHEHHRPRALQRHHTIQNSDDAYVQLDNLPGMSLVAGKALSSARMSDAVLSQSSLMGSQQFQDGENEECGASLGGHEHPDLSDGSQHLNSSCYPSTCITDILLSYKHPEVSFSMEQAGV

Several values for one entry are separate records, joined by “and”; a condition that tells them apart may be missing. Equal values may be shown once. Read-outs that look alike come from different tables or passages of the source.

Chain of CDK9 (P50750 whole entry): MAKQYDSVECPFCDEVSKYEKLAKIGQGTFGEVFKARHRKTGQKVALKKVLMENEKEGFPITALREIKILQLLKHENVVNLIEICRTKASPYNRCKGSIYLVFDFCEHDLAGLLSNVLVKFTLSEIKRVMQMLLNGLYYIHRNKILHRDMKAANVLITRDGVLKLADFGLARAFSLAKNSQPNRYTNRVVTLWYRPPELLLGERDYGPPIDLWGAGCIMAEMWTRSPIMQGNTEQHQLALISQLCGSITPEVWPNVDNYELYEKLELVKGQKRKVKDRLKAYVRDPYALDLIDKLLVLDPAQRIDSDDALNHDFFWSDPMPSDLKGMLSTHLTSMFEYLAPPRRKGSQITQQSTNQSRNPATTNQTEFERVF
Chain of CDK9 (O60563 whole entry partner): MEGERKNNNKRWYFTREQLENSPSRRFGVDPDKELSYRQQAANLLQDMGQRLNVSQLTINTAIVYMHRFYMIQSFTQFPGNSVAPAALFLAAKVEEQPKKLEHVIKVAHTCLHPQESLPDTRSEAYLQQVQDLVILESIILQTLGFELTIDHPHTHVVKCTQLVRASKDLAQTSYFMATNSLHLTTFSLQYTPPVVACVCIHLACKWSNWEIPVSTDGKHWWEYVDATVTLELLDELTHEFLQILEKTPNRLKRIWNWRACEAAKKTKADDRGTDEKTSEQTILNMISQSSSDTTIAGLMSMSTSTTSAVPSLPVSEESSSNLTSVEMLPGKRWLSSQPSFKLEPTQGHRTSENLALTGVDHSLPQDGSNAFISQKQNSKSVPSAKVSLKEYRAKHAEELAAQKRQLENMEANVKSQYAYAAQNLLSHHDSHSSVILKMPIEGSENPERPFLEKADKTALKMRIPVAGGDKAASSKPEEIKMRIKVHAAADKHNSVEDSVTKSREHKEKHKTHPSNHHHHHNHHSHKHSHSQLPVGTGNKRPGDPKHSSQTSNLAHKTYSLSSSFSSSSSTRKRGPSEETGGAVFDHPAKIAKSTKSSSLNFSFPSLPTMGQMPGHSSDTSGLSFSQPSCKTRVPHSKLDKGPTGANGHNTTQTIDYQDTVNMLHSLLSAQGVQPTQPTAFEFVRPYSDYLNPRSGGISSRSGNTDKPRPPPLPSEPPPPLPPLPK
Chain of ARAF (P10398 whole entry): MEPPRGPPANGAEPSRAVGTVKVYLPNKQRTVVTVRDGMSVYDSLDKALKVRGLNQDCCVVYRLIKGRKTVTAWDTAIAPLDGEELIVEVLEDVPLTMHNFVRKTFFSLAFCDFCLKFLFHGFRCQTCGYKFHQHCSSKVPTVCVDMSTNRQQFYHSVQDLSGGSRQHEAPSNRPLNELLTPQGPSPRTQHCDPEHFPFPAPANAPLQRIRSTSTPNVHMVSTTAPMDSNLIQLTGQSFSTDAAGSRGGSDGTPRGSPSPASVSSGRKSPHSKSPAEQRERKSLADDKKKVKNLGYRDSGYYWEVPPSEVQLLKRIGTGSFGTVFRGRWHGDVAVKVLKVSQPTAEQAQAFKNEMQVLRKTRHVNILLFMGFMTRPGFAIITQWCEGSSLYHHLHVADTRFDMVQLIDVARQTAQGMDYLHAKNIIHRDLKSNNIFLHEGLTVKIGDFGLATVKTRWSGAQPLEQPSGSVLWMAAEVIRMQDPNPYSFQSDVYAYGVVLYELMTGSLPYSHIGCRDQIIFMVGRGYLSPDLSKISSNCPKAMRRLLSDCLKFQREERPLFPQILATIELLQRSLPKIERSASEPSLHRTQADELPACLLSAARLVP
Chain of MAP2K2 (P36507 whole entry): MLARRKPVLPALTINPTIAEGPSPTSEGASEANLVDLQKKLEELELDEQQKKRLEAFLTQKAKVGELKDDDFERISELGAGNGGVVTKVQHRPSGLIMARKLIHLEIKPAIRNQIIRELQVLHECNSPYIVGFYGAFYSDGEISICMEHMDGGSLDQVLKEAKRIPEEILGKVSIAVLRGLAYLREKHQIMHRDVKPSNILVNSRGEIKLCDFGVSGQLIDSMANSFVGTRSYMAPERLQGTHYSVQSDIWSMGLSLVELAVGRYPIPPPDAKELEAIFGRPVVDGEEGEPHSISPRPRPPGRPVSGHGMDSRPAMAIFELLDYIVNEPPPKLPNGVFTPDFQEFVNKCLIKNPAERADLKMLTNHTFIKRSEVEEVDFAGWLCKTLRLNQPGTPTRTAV
Chain of GPRK5 (P34947 whole entry): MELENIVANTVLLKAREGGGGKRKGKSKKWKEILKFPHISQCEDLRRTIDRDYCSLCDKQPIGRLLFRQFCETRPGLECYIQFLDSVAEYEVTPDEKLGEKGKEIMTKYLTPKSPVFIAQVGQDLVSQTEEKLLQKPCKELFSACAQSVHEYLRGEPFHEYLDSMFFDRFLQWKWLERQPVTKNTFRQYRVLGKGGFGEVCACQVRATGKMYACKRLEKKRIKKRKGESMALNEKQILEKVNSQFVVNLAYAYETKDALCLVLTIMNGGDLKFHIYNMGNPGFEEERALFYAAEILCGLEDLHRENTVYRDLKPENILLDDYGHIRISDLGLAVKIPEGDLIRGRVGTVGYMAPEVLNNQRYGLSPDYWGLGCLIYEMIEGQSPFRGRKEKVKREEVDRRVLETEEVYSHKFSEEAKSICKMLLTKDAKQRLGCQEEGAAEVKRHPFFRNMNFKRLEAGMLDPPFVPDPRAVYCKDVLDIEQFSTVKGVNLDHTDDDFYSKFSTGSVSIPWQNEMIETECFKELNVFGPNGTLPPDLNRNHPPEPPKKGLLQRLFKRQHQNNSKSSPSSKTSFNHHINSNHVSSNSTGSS

With `Nc1ncc(-c2cccc3ncsc23)cc1-c1ccc2c(c1)CCNC2=O` [Compound I-13, 6-(2-amino-5-(benzo[d]thiazol-7-yl)pyridin-3-yl)-3,4-dihydroisoquinolin-1(2H)-one], the entries for the “% inhibition (range)” value in test [1] and in [6] (10 μM) were 0.0% and 50-75%, respectively. Further, the “inhibition (10 μM)” value in test [1] is 19.0%; in test [4], 58.9%; in test [6] it was 59.4%. Also, the inhibition at 10 µM was 0% in test [2] (read-out: % inhibition (range)); 16.7% in [2] (read-out: inhibition (10 μM)); 35 to 50% in [3] (read-out: % inhibition (range)); 41.1% in [3] (read-out: inhibition (10 μM)); 75 to 90% in test [5] (read-out: % inhibition (range)); greater than 85% in [5] (read-out: inhibition (10 μM)). Besides, the inhibition at 10 µM is 35 to 50% in test [6] (read-out: % inhibition (range)); 44.7% in test [6] (read-out: inhibition (10 μM)); 0% in test [7] (read-out: % inhibition (range)); -12% in [7] (read-out: inhibition (10 μM)); 0% in [8] (read-out: % inhibition (range)); 1.7% in test [8] (read-out: inhibition (10 μM)). Further, the inhibition at 10 µM in test [9] (read-out: % inhibition (range)) was 0%; in test [9] (read-out: inhibition (10 μM)) it was -36.7%; in test [10] (read-out: % inhibition (range)), 0%; in test [10] (read-out: inhibition (10 μM)), 17.5%; in [11] (read-out: % inhibition (range)), 35 to 50%; in test [11] (read-out: inhibition (10 μM)), 47.8%.
Regarding `CN(C1CC1)S(=O)(=O)c1ccc(-c2cnc(N)c(-c3ccc4c(c3)CCNC4=O)c2)c(F)c1` [Compound I-28, 4-(6-amino-5-(1-oxo-1,2,3,4-tetrahydroisoquinolin-6-yl)pyridin-3-yl)-N-cyclopropyl-3-fluoro-N-methylbenzenesulfonamide], the “% inhibition (range)” value in [1] is recorded as 0.0%; in test [4] (10 μM), 50-75%. Moreover, the “inhibition (10 μM)” value in test [1] was 14.9%; in test [4] it was 68.2%; in test [6] it was 42.6% and 82.1%. For the same molecule, the inhibition at 10 µM in [2] (read-out: % inhibition (range)) is 0%; in [2] (read-out: inhibition (10 μM)), 8%; in [3] (read-out: % inhibition (range)) it was 0%; in [3] (read-out: inhibition (10 μM)), 28.9%; in test [5] (read-out: % inhibition (range)) it was 75 to 90%; in test [5] (read-out: inhibition (10 μM)) it was greater than 85%. Further, the inhibition at 10 µM was 0% in test [7] (read-out: % inhibition (range)); 10.7% in test [7] (read-out: inhibition (10 μM)); 50 to 75% in [8] (read-out: % inhibition (range)); 68.3% in test [8] (read-out: inhibition (10 μM)); 0% in test [9] (read-out: % inhibition (range)); -23.7% in [9] (read-out: inhibition (10 μM)). For the same molecule, the inhibition at 10 µM came out at 0% in test [10] (read-out: % inhibition (range)), 5.9% in [10] (read-out: inhibition (10 μM)), 0% in test [11] (read-out: % inhibition (range)) and 30.1% in [11] (read-out: inhibition (10 μM)).
